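How tested: cells in 96-well plates exposed to compound for 48 hours at five concentrations. GI50 = concentration required for 50% inhibition of growth. TGI: concentration producing complete growth inhibition.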
Columns and labels:
Test in all cases: NCI tumour cell line growth inhibition, 48 h
[1] = test system: SF-295 CNS
[2] = test system: HOP-62 NSCLC
[3] = test system: HOP-92 NSCLC
[4] = test system: NCI-H226 lung
[5] = test system: SNB-19 CNS
[6] = test system: NCI-H522 lung
[7] = test system: SW-620 colon
[8] = test system: SK-OV-3 ovarian
[9] = test system: MALME-3M melanoma
[10] = test system: MDA-MB-435

Structure (SMILES) | TGI [1] [µM] | TGI [2] [µM] | TGI [3] [µM] | TGI [4] [µM] | TGI [5] [µM] | TGI [6] [µM] | TGI [7] [µM] | TGI [8] [µM] | TGI [9] [µM] | GI50 [1] [µM] | GI50 [2] [µM] | GI50 [3] [µM] | GI50 [4] [µM] | GI50 [5] [µM] | GI50 [6] [µM] | GI50 [7] [µM] | GI50 [8] [µM] | GI50 [9] [µM] | GI50 [10] [µM] | TGI [10] [µM]
COC1=CC(O)(CC(N)=O)c2ccccc2C1=O (stereo not drawn) | > 100 | > 100 | > 100 | > 100 | > 100 | > 100 | > 100 | > 100 | > 100 |  |  |  |  |  |  |  |  |  |  | 
CCOc1ccc([C@@H]2[C@@H](Oc3ccccc3)C(=O)N2c2cc(OC)c(OC)c(OC)c2)cc1 | > 100 | > 100 | > 100 | > 100 | > 100 | 0.371 | > 100 | > 100 | > 100 | 0.0534 | 0.0586 | 0.642 | 1.13 | 0.289 | 0.0323 | 0.0536 | 0.227 | > 100 |  | 
CC(=O)C1CC=C(C)CC1 (stereo not drawn) | > 100 | > 100 | > 100 | > 100 | > 100 | > 100 | > 100 | > 100 | > 100 |  |  |  |  |  |  |  |  |  |  | 
CC(=O)c1ccc(NC(=O)CSc2nnc(-c3cc(-c4ccc(C)cc4)nc4ccccc34)o2)cc1 | 6.08 | 5.7 | 6.3 | 6.37 | 19.3 | 9.06 | > 100 | 8.22 | 8.34 | 2.18 | 2.08 | 2.59 | 2.39 | 3.87 | 2.39 | 3.24 | 2.64 | 2.67 |  | 
CC/C=C1\N=C(c2ccc(Cl)cc2)OC1=O | > 100 | > 100 | > 100 | > 100 | > 100 | > 100 | > 100 | > 100 | > 100 |  |  |  |  |  |  |  |  |  |  | 
Cc1cccc(Oc2nccc(-c3c(-c4ccc(F)cc4)ncn3C3CCNCC3)n2)c1C | 14 | 9.56 |  |  | > 25 | > 16.2 | > 14.3 | 12.5 | 9.58 | 5.56 | 4.84 |  |  | 10.2 | 9.84 | 7.81 | 5.72 | 4.68 | 6.52 | > 16.1
CCn1cc(/C=C/C(C)c2cn(CC)c(=O)[nH]c2=O)c(=O)[nH]c1=O (stereo not drawn) | > 100 | > 100 | > 100 |  | > 100 | > 100 | > 100 | > 100 | > 100 |  |  |  |  |  |  |  |  |  |  | 
COc1ccc2oc3c4c2c1CCC4CCC3=O (stereo not drawn) | > 100 | > 100 | > 100 |  | > 100 | > 100 | > 100 | > 100 | > 100 |  |  |  |  |  |  |  |  |  |  | 
CC1=CC(=O)CCC2(C)C1CC[C@@H]2OC=O (stereo partly drawn) | > 100 | > 100 | > 100 | > 100 | > 100 | > 100 | > 100 | > 100 |  |  |  |  |  |  |  |  |  |  |  | 
O=C(CC1(O)C(=O)Nc2ccccc21)c1ccccc1Cl (stereo not drawn) | > 100 |  | > 100 | > 100 | > 100 | > 100 | > 100 | > 100 | > 100 |  |  |  |  |  |  |  |  |  |  | 
CC(C)c1ccccc1NC(=O)C(=O)Cc1nc2ccccc2s1 | > 100 | > 100 | > 100 | > 100 | > 100 | > 100 | > 100 | > 100 | > 100 |  |  |  |  |  |  |  |  |  |  | 
CCOC(=O)N1CCc2cc(OC)c(OC)c3c2C1CC3=O (stereo not drawn) | > 100 | > 100 | > 100 |  | > 100 | > 100 | > 100 | > 100 | > 100 |  |  |  |  |  |  |  |  |  |  | 
O=C(CO)CC(=O)C(=O)Nc1nc([N+](=O)[O-])cs1 | > 100 | > 100 |  | > 100 | > 100 | > 100 | > 100 | > 100 | > 100 |  |  |  |  |  |  |  |  |  |  | 
N#CC(C(=O)/C(=N\Nc1nc(=S)[nH]n1N)C(C#N)c1ccc(Cl)cc1)c1ccc(Cl)cc1 (stereo not drawn) | > 100 | > 100 | > 100 | > 100 | > 100 |  | > 100 | > 100 | > 100 |  |  |  |  |  |  |  |  |  |  | 
CC(C)(C)NN=C1C(C)(C)C(=NNC(C)(C)C)C1(C)C | > 100 | > 100 | > 100 | > 100 | > 100 | > 100 | > 100 | > 100 | > 100 |  |  |  |  |  |  |  |  |  |  | 
